The record followed here is patent US12090166B2, “Pharmaceutical composition for preventing or treating dentin-dental pulp disease or periodontal disease, containing LPAR2 inhibitor” (PUSAN NATIONAL UNIVERSITY INDUSTRY-UNIVERSITY COOPERATION …, priority 2018, dated 2024).

Entries after “also recorded” stand apart in the source; their conditions may differ.

In test [1] the test system is human-derived dental pulp stem cells. Kind of test: Extracellular matrix calcification by Alizarin Red S staining during bone differentiation. It is filed as cell-based. The following applies: for calcification (Alizarin Red S staining): 0, 1, 5 and 1.0 μM/ml in bone differentiation induction medium. Here is the method:
Human-derived dental pulp stem cells (4×10^5 cells/ml) were cultured in Miltenyi Stem MACS MSC Expansion Media Kit XF medium containing 100 μg/ml streptomycin and 100 μg/ml penicillin, followed by culturing in bone differentiation induction medium (10% fetal bovine serum, […] dexamethasone, 10 mM β-glycerophosphate, and 50 mM ascorbic acid). Beck 35 (LPAR2 inhibitor) and LPA were added to the bone differentiation induction medium at various concentrations (0, 1, 5 and 1.0 μM/ml). […] In order to quantify the degree of staining, the absorbance was measured at 562 nm after dissolving in 10% (WN) cetylpyridinium chloride and 10 mM sodium phosphate (pH 7.0) solution.
Human-derived dental pulp stem cells (4×10^5 cells/ml) were cultured in Miltenyi Stem MACS MSC Expansion Media Kit XF medium containing 100 μg/ml streptomycin and 100 μg/ml penicillin, and differentiation was induced for 14 days by changing to the bone differentiation induction medium. To the bone differentiation induction medium, RP10-83, an agonist of LPAR2 and H2L5186303, an antagonist of LPAR2 were added at various concentrations (0, 1, and 10 μM/ml). The cells in which bone differentiation was induced were washed twice with PBS, fixed with 70% ethanol at 4° C. for 1 hour, stained with 40 mM Alizarin Red S (pH 4.2, Sigma Co.) solution for 10 minutes, and then washed with distilled water sufficiently. In order to quantify the degree of staining, the absorbance was measured at 562 nm after dissolving in a 10% (WN) cetylpyridinium chloride and 10 mM sodium phosphate (pH 7.0) solution.
Human-derived dental pulp stem cells (4×10^5 cells/ml) were cultured in a growth medium without antibiotics. 50 nM of LPAR2 si-RNA was transfected using jetPRIME (Polyplus Transfection) according to the manufacturers protocol. As a control, non-targeting siRNA (SEQ ID NO: 1: […]) was transfected. The differentiation of the cells was induced for 7 days after changing to bone differentiation induction medium. […]

For test [2] the test system is unchanged. Kind of test: Electron microscope analysis after bone differentiation. It is filed as cell-based. To be noted: bone differentiation medium with vs without Beck 35. On the procedure: As in Example 2-2, human-derived dental pulp stem cells were cultured in a culture medium for inducing bone differentiation with or without Beck 35, an inhibitor of LPAR2, to induce bone differentiation, and then observed by an electron microscope.

Test [3] concerns exposed pulp cavity of mouse molars. Kind of test: Pulp cavity exposure animal model (H&E, MTC, micro-CT, immunohistochemistry). The format is in vivo. Here is the method:
(§1) After anesthesia is performed by administering intraperitoneally Zoletil (Virbac, Carros, France) and Rompun (Bayer, Berlin, Germany), which are anesthetic inducing agents according to the weight, an experiment was conducted to expose the pulp cavity for the maxillary right first molars. To confirm the change in gene expression, an experiment was conducted on the developing 14th day pregnant embryo. ICR-based female mice whose pregnancy was confirmed were sacrificed in the morning of the 14th day after pregnancy, and then embryos were obtained and the tooth germ of the lower jaw was finely dissected under a stereoscopic microscope, and the tooth germ tissue was placed on the lid of a 35 mm diameter Petri dish for experimentation together with the culture solution and cultured in a 5% carbon dioxide incubator at 37° C. for 24 hours with or without Beck 35 drug administration.
In order to prepare tissue sections, mice were sacrificed after a certain experimental period in the experimental group and the control group, fixed in 4% paraformaldehyde, washed with phosphate buffer solution, and demineralized in 0.1 M EDTA chelate solution. Demineralization proceeded for 4 weeks, and after demineralization, it was embedded in wax, cut to a thickness of 7 micrometers, and smeared on a glass slide to perform conventional hematoxylin and eosin staining.
MTC staining was performed to confirm the synthesis of collagen protein and formation of mineralized tissue. After staining the nucleus with hematoxylin for the tissue on the glass slide produced through the normal tissue sectioning process and if the entire tissue is stained with a mixed dyeing solution designed to perform cytoplasmic staining with biebrich scarlet and muscle fibers staining with acid fuchsin, all of collagen fibers, muscle fibers and cytoplasm can be observed by staining red.
Microcomputerized tomography was performed to confirm the hard tissue regenerated by the drug. The lower jaw tissue fixed in 4% paraformaldehyde was observed using Skyscan1272 (Bruker, Kontich, Belgium), and 2 micrometers pixels were photographed at 4904×3280 resolution for the entire 360 degree, and the image was reconstructed in 3D with a data viewer and then the degree of hard tissue formation was objectively analyzed by analyzing with the CTAn (Bruker) program.
While observing the oral cavity of anesthetized mice under a stereoscopic microscope, a pulp cavity exposure experiment was performed on the upper right first molar, and the left upper first molar was used as a untreated control. While observing with a stereoscopic microscope, using a round burr having 0.6 mm diameter connected to a high-speed handpiece, the enamel and dentin was exposed to be perpendicular to the occlusal surface, and when necessary, water was sprayed to minimize tissue damage. Afterwards, the Beck 35 drug was mounted on Pluronic F127 and delivered to the exposed pulp cavity. Only Pluronic F127 was delivered to confirm as a control. After the delivery of the Beck 35 drug to the pulp cavity, the doubly exposed pulp cavity was covered with Dycal (Dentsply Caulk, Milford, DE) and a […] composite resin. Thereafter, on the 3rd, 5th and 42nd days, the changes were confirmed by histological and microcomputed tomography techniques.
To confirm the expression of the protein, the expression pattern of NESTIN, a protein specific for odontoblasts, was confirmed by immunohistochemistry using tissue sections from the control and treatment groups. The expression of the protein was confirmed based on the antigen-antibody reaction, and the positive reaction of the protein was confirmed as brown with 3,3′-diaminobenzidine.

In a further test the test system is tooth germ mesenchyme. Description: Real-time PCR analysis of in vitro cultured tooth germ mesenchyme. The format is cell-based, mouse. The following applies: 24 hours, 5 μM, vs control group. On the procedure:
as §1, with “Experimental animals were carried out using mouse ICR-based male 8 week-old mice. After” for “After”
In order to confirm the change in gene expression by Beck 35 drugs, in vitro culture was performed by microdissecting the tooth germ at the 14th day of the embryonic period, and the group treated with the drug for 24 hours was set as the experimental group, and the untreated tissue was set as the control group, and changes in gene expression were confirmed by real-time PCR analysis. After RNA was obtained from the cultured tissue, the first strand cDNA was synthesized and the expression level was confirmed by real-time PCR for genes known to be important for dentin formation until now.
(In qPCR the cycle at which signal appears reflects the starting amount.)

For test [4], the system named is human-derived dental pulp stem cells. Description: Cell viability measurement (MTT method). The format is cell-based. To be noted: 24 hours; for proliferation of human-derived dental pulp stem cells (cell viability, MTT): expansion medium, vs control. Here is the method:
Cell viability measurement was evaluated by the 3-(4,5-dimethylthiazol-2-yl)-2,5-diphenyl-2H-tetrazolium bromide (MTT) method. Human-derived dental pulp stem cells were coated with 0.2% gelatin one day before culture. On the day of incubation, 0.2% gelatin was removed from the 48-well plate and washed once with PBS. In 48-well plates, human-derived dental pulp stem cells (4×10^5 cells/ml) were cultured in Miltenyi Stem MACS MSC Expansion Media Kit XF medium containing 100 μg/ml streptomycin and 100 μg/ml penicillin. Beck 35 was evaluated at various concentrations (0, 0.1, 1 and 1.0 μg/ml) for 24 hours at 37° C. in an atmosphere of 5% CO2 and 95% humidity. Then, the cells were incubated with 0.5 mg/ml MTT (SIGMA, USA) for 3 hours, and the reaction was stopped by adding dimethyl sulfoxide (DMSO, JUNSEL, Japan). Results were obtained at 560 nm using an ELISA reader. The cell viability of the control cells was used as a 100% control value.
In addition, human-derived dental pulp stem cells were cultured in bone differentiation inducing medium (10% fetal bovine serum, […] dexamethasone, 10 mM β-glycerophosphate and 50 mM ascorbic acid) for 24 hours to induce the differentiation and various concentrations (1, 5 and 1.0 μM/ml) of Beck 35 were treated during differentiation.
A general note: Tetrazolium dyes change colour on reduction, which living cells bring about.

Test [5] relates to dental papilla mesenchyme. Kind of test: Real-time PCR analysis of in vitro cultured dental papilla mesenchyme. The format is cell-based, mouse. The following applies: 24 hours, vs control group. Here is the method:
as §1, with “Experimental animals were carried out using mouse ICR-based male 8 week-old mice. After” for “After”
In order to confirm the change in gene expression by Beck 35 drugs, in vitro culture was performed by microdissecting the tooth germ at the 14th day of the embryonic period, and the group treated with the drug for 24 hours was set as the experimental group, and the untreated tissue was set as the control group, and changes in gene expression were confirmed by real-time PCR analysis. […]

Test [6] deals with human-derived dental pulp stem cells. Description: Real-time PCR analysis of differentiation genes. The format is cell-based. To be noted: 1 μM once every 3 days, 7 days in bone differentiation medium. On the procedure:
As in Example 2-2, human-derived dental pulp stem cells were differentiated for 7 days, 14 days and 21 days in a bone differentiation induction culture medium. Beck 35 was added to the bone differentiation medium at a concentration of 1 μM once every 3 days to differentiate for a week. Those maintained with the human-derived dental pulp stem cells, induced differentiation for 7 days, 14 days and 21 days with bone differentiation medium, and induced differentiation for 7 days in bone differentiation medium containing Beck 35 was used to isolate total RNA with Trisure (Bioline, UK) and reverse transcription to cDNA was performed using HelixCript™ Thermo Reverse Transcriptase (NanoHelix, Korea, Daejeon, Korea). The synthesized cDNA was performed using the primers of Table 1 and Power SYBR Green PCR Master Mix. The data analysis was determined using the delta Ct method.

Where [7] appears, read: after 3 and 5 days, vs control group.
[8] abbreviates: after 42 days, vs control group.

Consider lysophosphatidic acid [LPA], for which, in test [1], the “calcification (Alizarin Red S staining)” value is “did not undergo the calcification”.

With `Cc1csc2c(N[C@@H](C)CN3CCN(S(=O)(=O)c4ccc(Cl)c(Cl)c4)CC3)ncnc12` [Beck 35], the “cell morphology by electron microscope” value in test [2] is “relatively long-shaped cells”. Besides, in test [3] (3 and 5 days later), the “blood vessel distribution (MTC staining)” value was “same blood vessel distribution as the HE staining result”; the “number of cells in which the inflammatory cells and the nucleus were thickly condensed (MTC staining)” value is recorded as “small”. Moreover, the “dentin bridge formation (micro-CT)” value in test [3] (42 days after pulp cavity exposure, vs control group) is recorded as “dentin bridge was formed; also recorded: perfect dentin bridge was regenerated”. The “dentin regeneration, morphological” value in test [3] (Beck 35 5 μM in exposed pulp cavity, maxillary molar of 8-week-old B6 mice) is recorded as “perfectly formed dentin bridge”. For the same compound, in test [3] (setting [7]), the “NESTIN expression in pulp cavity periphery (immunohistochemistry)” value is “more positive reactions”, the “RUNX2 expression in pulp cavity periphery (immunohistochemistry)” value is listed as “more positive reactions”, the “blood vessels in pulp cavity (H&E)” value is recorded as “more tissues were observed as blood vessels” and the “staining of cell nuclei in the pulp cavity (H&E)” value is on record as “stained lighter than the control group”. In addition, in test [3] (setting [8]), the “formation of calcified dentin bridge (MTC staining)” value is listed as “formation of calcified dentin bridge was confirmed” and the “formation of dentin bridge (H&E)” value is reported as “formation of dentin bridge was clearly observed”. Further, the “new collagen fibers in pulp cavity (HE and MTC staining)” value in test [3] (after treating exposed pulp cavity) is on record as “new collagen fibers seen as pulp cavity internal tissue were confirmed”. Further, the “number of inflammatory cells (H&E)” value in test [3] (treatment group vs control group) is on record as “in the control group, the number of inflammatory cells was observed higher than that of the treatment group”. In addition, in test [3] (vs control group (dispersed and pale dyed)), the “staining of enamel matrix” value is “dyed dark red”. Besides, in test [1], the “calcification (Alizarin Red S staining)” value is “promoted the calcification in a concentration-dependent manner”. Besides, in the test with tooth germ mesenchyme, the “expression of Axin2 (Wnt signaling)” value is “reduced”, the “expression of Bmp2” value was “reduced”, the “expression of Bmp4” value is “reduced” and the “expression of Bmp6” value is on record as “reduced”. Besides, in the test on tooth germ mesenchyme, the “expression of Bmp7” value was “reduced”, the “expression of Lef1 (Wnt signaling)” value is recorded as “reduced” and the “expression of beta-Catenin (Wnt signaling)” value is on record as “reduced”. Also, in test [4] (10 μM/ml), the “proliferation of human-derived dental pulp stem cells (cell viability, MTT)” value was “promoted the proliferation”. Moreover, the “proliferation of human-derived dental pulp stem cells (cell viability, MTT)” value in test [4] (0.1 and 1 μM/ml) is “not different from the control”. In test [4] (1, 5 and 1.0 μM/ml, bone differentiation inducing medium), the “proliferation of human dental pulp stem cells during differentiation” value is reported as “inhibited the proliferation”. Besides, in test [5], the “expression of Bmp6” value is recorded as “increased” and the overall gene expression result was “overall gene expression increased”. In test [6], the “expression level of DMP-1 (dentin matrix protein 1)” value is on record as “Increased”, the “expression level of DSPP (dentin sialophosphoprotein)” value is given as “Increased”, the “expression level of Runx2 (runt-related transcription factor 2)” value was “Increased” and the “expression level of osteopontin” value is recorded as “Increased”.

With `O=C(O)/C=C\C(=O)Nc1ccc(Oc2cccc(Oc3ccc(NC(=O)/C=C\C(=O)O)cc3)c2)cc1` [H2L5186303], in test [1] (0, 1, and 10 μM/ml, differentiation induced for 14 days), the “bone differentiation (Alizarin Red S staining)” value is recorded as “promoted bone differentiation”.
